# Reference: patent US8337851B2, “Methods of monitoring the efficacy of anti-CD40 antibodies in treating a subject for a CD40-expressing cancer” (Novartis AG, priority 2005, dated 2012)
# Entries after “also recorded” stand apart in the source; their conditions may differ.
# How the values were obtained:
# [1] = system: B-CLL cells from patients; assay: Western blot of apoptosis and survival biomarkers in sCD40L-stimulated B-CLL cells; assay type: cell-based, human
# Description: In these experiments, 1.0×10^6 B-CLL cells from patients were stimulated with 1 μg/ml sCD40L (Alexis Corporation, Bingham, Noffinghamshire, UK). […] Cleaved PARP, which is a biomarker of apoptosis, and Bcl-xl, Bcl-2, and cIAP1, which are biomarkers of survival, were detected in cell lysates by Western blot analysis using commercially available antibodies specific for these biomarkers.
# In these experiments, 1.0×10^6B-CLL cells from patients were stimulated with 1 μg/ml sCD40L (Alexis Corp., Bingham, Nottinghamshire, UK). […] Cells were collected at 22-24 hours. Western blot analysis with antibodies to cleaved PARP, caspase-3, and Bcl-xl were conducted on cell lysates. Antibody against β-actin was used for detecting equal loading and transfer efficiency.
# [2] = system: B cells from normal human subjects; assay: In vitro CD40 ligand-mediated proliferation of normal B cells; assay type: cell-based
# Source text: 2, 2000, and PCT International Application No. PCT/US01/30857, also titled “Human Anti-CD40 Antibodies,” filed Oct. 2, 2001, both of which are herein incorporated by reference in their entirety.
# 4, 2003, Nov. 26, 2003, and Apr. 27, 2004, and assigned U.S. Patent Application Nos. 60/517,337, 60/525,579, and 60/565,710, respectively, and International Patent Application No. PCT/US2004/037152, also entitled “Antagonist, Anti-CD40 Monoclonal Antibodies and Methods for Their Use,” filed Nov. 4, 2004; the contents of each of which are herein incorporated by reference in their entirety.
# [3] = system: human lymphocytes from normal subjects; assay: Proliferation of human lymphocytes; assay type: cell-based
# [4] = system: B-CLL cells from patients; assay: RT-PCR timecourse of transcripts in B-CLL cells; assay type: cell-based, human; details: 10 μg/mL with sCD40L, vs IgG1
# Description: Cell pellets were collected at 0 hr (no CD40L), 1, 4 and 24 hr and lysed simultaneously at the end. RNA was isolated using the RNeasy kit, and cDNA was prepared using the ABI RT kit. Two-step RT-PCR was done with the genes shown in two separate reactions, based on TM of each set of oligos.
# [5] = system: B-CLL cells; assay: p38 MAPK signaling in B-CLL cells, four-hour experiment; assay type: cell-based, human; details: 4 hours
# Description: In the four-hour experiment, approximately 0.8×10^6 B-CLL cells per well were serum starved in 1% FBS-containing media for 4 hours. […] Cell lysates were collected before and 20 minutes after CD40L stimulation. Western blot analysis with antibodies against specific proteins shown were conducted, and equal loading was evaluated by probing with antibodies to total p38 (t-p38) and β-actin.
# [6] = system: B-CLL cells; assay: cPARP flow cytometry of CLL patient PBMCs; assay type: cell-based, human; details: 24 hours, 10 μg/ml
# Description: [formula] cPARP analysis by flow cytometry was performed after 24 hours in culture. Cells were treated with FACSLysis buffer (BD Biosciences) and frozen. After fixation in 1% formaldehyde for 45 min, cells were washed and incubated with PE-conjugated mouse anti-human CD19 for 30 min at room temperature (RT). Cells were then permeabilized using 70% ethanol on ice for 30 min and stained for 30 min at RT with rabbit anti-human cPARP antibody or isotype control rabbit IgG along with PerCP-Cy5.5-labeled mouse anti-human CD5. This was followed by incubation with goat anti-rabbit IgG-AlexaFluor 647 for 30 min at RT before fixing with 1% formaldehyde and analyzing by flow cytometry. Percent blockade was calculated as follows: […]
# [7] = system: IM-9 tumor cells (a human multiple myeloma cell line); assay: IM-9 multiple myeloma subcutaneous xenograft model; assay type: in vivo, SCID mice
# Description: SCID mice were inoculated subcutaneously with IM-9 tumor cells (a human multiple myeloma cell line expressing both CD40 and CD20) in 50% […]™ at 5×10^6 cells per mouse. […] Alternatively, bortezomib dosing at 1 mg/kg intravenously occurred on days 5, 8, 12, and 15 after tumor implantation. […] Antibody dosing occurred on days 8, 14, and 21 post tumor implantation, while bortezomib dosing occurred on days 8, 11, 14 and 18 post tumor implantation. […] Data were analyzed using the log-rank test.
# [8] = system: B-CLL cells from patients; assay: Western blot of apoptosis markers in B-CLL cells not stimulated with CD40L; assay type: cell-based, human; details: 10 μg/ml; 1, 4 and 24 hours; no CD40L
# Description: Cells were collected at 1, 4, and 24 hours. Western blot analysis with antibodies to cleaved PARP (apoptotic protein) and XIAP (anti-apoptotic protein) was conducted on cell lysates.
# [9] = system: CLL cells; assay: CD40L-induced cytokine secretion by CLL cells (Meso Scale Discovery); assay type: cell-based, human; details: CLL #1; 10 μg/ml, 24 hours; preliminary, n=1
# Description: Cells (1×10^5 cells per well) were cultured in a 96-well plate in the presence or absence of CD40L (CD40 transfected, formaldehyde fixed CHO cells, 2×10^5 per well). […] Production of hIL-6, hIL-8, hIL-10, hTNF-α, hGM-CSF, hIL-1b, hIL-12p70, MCP-1, and MIP-1β was measured by Meso Scale Discovery® multi-array system (Meso Scale Discovery, Gaithersburg, Md.).
# [10] = system: CLL cells obtained from patients with CLL; assay: CD40L-induced production of VEGF in CLL cells; assay type: cell-based, human
# Source text: In another experiment, CD40L-induced production of VEGF in normal B cells and CLL cells obtained from patients with CLL is examined in a manner similar to that described above.
# [11] = system: IM-9 tumor cells (a human multiple myeloma cell line); assay: Staged orthotopic IM-9 xenograft survival model; assay type: in vivo, SCID mice; details: 0.1, 1 or 10 mg/kg i.p. once a week from 7 days after implantation
# Description: SCID mice were inoculated subcutaneously with IM-9 tumor cells (a human multiple myeloma cell line expressing both CD40 and CD20) in 50% […]™ at 5×10^6 cells per mouse. In unstaged models, treatment was initiated one day after tumor implantation. […] Alternatively, tumor-bearing mice were injected with bortezomib at 0.5 mg/kg or 1 mg/kg intravenously once a week. Data were analyzed using the log-rank test.
# In staged models, treatment was initiated 7 days after tumor cell implantation. […] Alternatively, tumor-bearing mice were injected with bortezomib at 0.5 mg/kg intravenously. Data were analyzed using the log-rank test.
# [12] = patients #4 and #21, 10 μg/ml, 24 hours, 1 μg/ml sCD40L
substance,measurement,setting,value
CHIR-12.12: fully human anti-CD40 monoclonal antibody of the IgG1 isotype from hybridoma cell line 153.8E2.D10.D6.12.12 (ATCC PTA-5543),"cleaved PARP, caspase-3 and Bcl-xl, dose response (Western blot)","[1]; 0-20 μg/ml, 22-24 hours, 1 μg/ml sCD40L",induction of cleaved PARP and caspase-3 as well as reduction of Bcl-xl in a dose-dependent manner
same,"lowest dose with effect on cleaved PARP, caspase-3 and Bcl-xl","[1]; 22-24 hours, 1 μg/ml sCD40L",≥ 0.01 µg/mL
same,XIAP and Bcl-2 (Western blot),"[1]; patient #30, vs control IgG",reduced the expression of XIAP and Bcl-2
same,cleaved PARP (Western blot),"[1]; patient #30, vs control IgG",induced the expression of cleaved PARP
same,cleaved PARP (Western blot),"[1]; patient #31, vs control IgG",induced the expression of cleaved PARP
same,cyclin D1 and Bcl-xl (Western blot),"[1]; patient #31, vs control IgG",reduced the expression of cyclin D1 and Bcl-xl
same,Bcl-2 and TRAIL level (Western blot),[1]; [12],no changes of Bcl-2 and TRAIL level
same,"Bcl-xl, XIAP and cIAP1 (Western blot)",[1]; [12],"reduction of Bcl-xl, XIAP and cIAP1"
same,cleaved PARP (Western blot),"[1]; patients #4 and #21, 10 μg/ml, 24 hours, 1 μg/ml sCD40L, vs control IgG",induction of cleaved PARP
same,effect on proliferation of normal B cells,[2],act as antagonist anti-CD40 antibodies; also recorded: inhibit in vitro CD40 ligand-mediated proliferation of normal B cells
same,CD40L-induced lymphocyte proliferation,[3],inhibits CD40L-induced lymphocyte proliferation
same,induction of lymphocyte proliferation (agonist activity),[3]; antibody alone,do not induce strong proliferation of human lymphocytes from normal subjects; also recorded: does not induce the proliferation of human peripheral blood lymphocytes
same,"RNA expression of CD40, CD40L, VEGF, TRAF2 and TRAF3","[4]; 1, 4, 24 hr",inhibition of RNA expression
same,RNA expression of IL-6,[4],no transcriptional changes
same,RNA expression of TRAF6 and Mcl-1,[4],minor down-regulation
same,Phospho-IKKα/β activation by CD40L,[5]; 10 μg/mL,inhibited
same,p38 activation by CD40L,"[5]; SB203580 30 and 60 μM, CHIR-12.12 10 μg/mL",fully inhibited
same,blockade of CD40L-promoted survival,[6],"in each case, these effects were blocked"
same,Ki67+ proliferating cells (histology),[7]; 5 days after a single dose,significantly reduced the number of Ki67^+ proliferating cells
same,cleaved caspase 3 and cleaved PARP (histology),[7]; 5 days after a single dose,increased the level of cleaved caspase 3 and cleaved PARP
same,tumor growth,"[7]; first study, CHIR-12.12 1 and 10 mg/kg i.p. days 5, 12, 18, bortezomib 1 mg/kg i.v. days 5, 8, 12, 15","inhibited tumor growth at 15, 18, and 21 days post tumor implantation"
same,"tumor volume, CHIR-12.12 in combination with bortezomib","[7]; second study, CHIR-12.12 1 mg/kg i.p. plus bortezomib 1 mg/kg i.v.","the efficacy observed was additive; also recorded: a tumor volume reduction was observed on days 13, 16, 20, 23, and 26"
same,"apoptosis without CD40L stimulation (cleaved PARP, XIAP)",[8],did not trigger additional apoptosis of B-CLL cells
same,inhibition of CD40-ligand-induced MCP-1 secretion,[9],34.8 % inhibition
same,inhibition of CD40-ligand-induced hGM-CSF secretion,[9],86.5 % inhibition
same,inhibition of CD40-ligand-induced hIL-8 secretion,[9],91.0 % inhibition
same,inhibition of CD40-ligand-induced hIL-10 secretion,[9],99.6 % inhibition
same,inhibition of CD40-ligand-induced hTNF-α secretion,[9],89.6 % inhibition
same,CD40L-induced production of VEGF,[10],inhibit CD40L-induced production of VEGF
same,survival of tumor-bearing mice,[11],prolonged survival of tumor-bearing mice
